Experimental data taken from ChEMBL document CHEMBL1151182, “Phytochemical and larvicidal studies on Stemona curtisii: structure of a new pyrido[1,2-a]azepine Stemona alkaloid” (2004).
In brackets after ≈: the same amount, converted by molar mass.

Tested on: Anopheles minimus
Experiment: Larvicidal activity in Anopheles minimus HO by WHO method
Format: functional

SMILES | LC50
COC1=C(C)C(=O)O/C1=C1\O[C@]23CCCN4[C@H]([C@@H]5C[C@H](C)C(=O)O5)[C@H](C[C@H]4[C@H]2[C@@H]1C)O3 [OXYPROTOSTEMONINE] | 4 µg/mL (≈ 9.27 µM)
COC1=C(C)C(=O)O/C1=C1\O[C@@]23CCCN4CCC[C@H](O2)[C@H]4[C@H]3[C@@H]1C [STEMOCURTISINE] | 18 µg/mL (≈ 51.8 µM)
CC[C@H](O)[C@@H]1CC[C@@H]2O[C@@]34CCCN1[C@@H]2[C@H]3[C@H](C)/C(=C1/OC(=O)C(C)=C1OC)O4 [STEMOCURTISINOL] | 39 µg/mL (≈ 96.2 µM)
